Measurements from patent US9896418B2, “Aryl ethers and uses thereof” (Peloton Therapeutics, Inc., priority 2013, dated 2018).
pIC50: −log10 of the molar value.

Test system: HIF-2α HIS TAG-PASB Domain
Assay: HIF-2α Scintillation Proximity Assay (SPA)
Assay type: binding
Experimental: The percent inhibition was determined and IC50 values were calculated using the Dotmatics system based on the following equation: % inhibition=[(high control−sample)/(high control−low control)]×100.

Row | SMILES | pIC50
1 | N#Cc1cc(F)cc(Oc2ccc(S(=O)(=O)C(F)F)c(C#N)c2Br)c1 [Compound 77, 2-Bromo-3-(3-cyano-5-fluorophenoxy)-6-((difluoromethyl)sulfonyl)benzonitrile] | 5.72
2 | CC(=O)c1c(S(=O)(=O)C(F)(F)F)ccc(Oc2cc(F)cc(C#N)c2)c1C#N [Compound 79, 2-Acetyl-6-(3-cyano-5-fluorophenoxy)-3-((trifluoromethyl)sulfonyl)benzonitrile] | 5.89
3 | N#Cc1cc(F)cc(Oc2ccc(S(=O)(=O)C(F)F)c(CO)c2Br)c1 [Compound 80, 3-(2-Bromo-4-((difluoromethyl)sulfonyl)-3-(hydroxymethyl)phenoxy)-5-fluorobenzonitrile] | 7.66
4 | N#Cc1cccc(Oc2ccc(S(=O)(=O)C(F)F)c(CO)c2Br)c1 [Compound 81, 3-(2-Bromo-4-((difluoromethyl)sulfonyl)-3-(hydroxymethyl)phenoxy)benzonitrile] | 6.54
5 | COC(=O)c1c([S+]([O-])C(F)F)ccc(Oc2cc(F)cc(Cl)c2)c1Br (stereo not drawn) [Compound 82, Methyl 2-bromo-3-(3-chloro-5-fluorophenoxy)-6-((difluoromethyl)sulfinyl)benzoate] | 4.82
6 | CC(C)(C)OC(=O)NCc1c(S(=O)(=O)C(F)F)ccc(Oc2cc(F)cc(Cl)c2)c1Br [Compound 83, tert-butyl (2-bromo-3-(3-chloro-5-fluorophenoxy)-6-((difluoromethyl)sulfonyl)benzyl)carbamate] | 5.49
7 | NCc1c(S(=O)(=O)C(F)F)ccc(Oc2cc(F)cc(Cl)c2)c1Br [Compound 85, (2-Bromo-3-(3-chloro-5-fluorophenoxy)-6-((difluoromethyl)sulfonyl)phenyl)methanamine] | 5.54
8 | CC(=O)NCc1c(S(=O)(=O)C(F)F)ccc(Oc2cc(F)cc(Cl)c2)c1Br [Compound 86, N-(2-Bromo-3-(3-chloro-5-fluorophenoxy)-6-((difluoromethyl)sulfonyl)benzyl)acetamide] | 4.15
9 | O=S(=O)(c1ccc(Oc2cccc(C(F)(F)F)c2)c(Br)c1CO)C(F)F [Compound 89, (2-Bromo-6-((difluoromethyl)sulfonyl)-3-(3-(trifluoromethyl)phenoxy)phenyl)methanol] | 5.85
10 | CS(=O)(=O)c1ccc(Oc2cc(F)cc(Cl)c2)c2c1C(O)CC2 (stereo not drawn) [Compound 90, 4-(3-Chloro-5-fluorophenoxy)-7-(methylsulfonyl)-2,3-dihydro-1H-inden-1-ol] | 6.64
11 | CCS(=O)(=O)c1ccc(Oc2cc(F)cc(Cl)c2)c2c1C(O)CC2 (stereo not drawn) [Compound 91, 4-(3-Chloro-5-fluorophenoxy)-7-(ethylsulfonyl)-2,3-dihydro-1H-inden-1-ol] | 6.55
12 | CS(=O)(=O)c1ccc(Oc2cc(F)cc(Cl)c2)c(C(F)F)c1C#N [Compound 92, 3-(3-Chloro-5-fluorophenoxy)-2-(difluoromethyl)-6-(methylsulfonyl)benzonitrile] | 7.43
13 | CS(=O)(=O)c1ccc(Oc2cc(F)cc(F)c2)c(C(F)F)c1C#N [Compound 93, 2-(Difluoromethyl)-3-(3,5-difluorophenoxy)-6-(methylsulfonyl)benzonitrile] | 6.77
14 | CS(=O)(=O)c1ccc(Oc2cc(F)cc(C#N)c2)c(C(F)F)c1C#N [Compound 94, 3-(3-Cyano-5-fluorophenoxy)-2-(difluoromethyl)-6-(methylsulfonyl)benzonitrile] | 6.89
15 | CS(=O)(=O)c1ccc(Oc2cc(F)cc(C#N)c2)c2c1C(O)CCC2 (stereo not drawn) [Compound 95, 3-Fluoro-5-((5-hydroxy-4-(methylsulfonyl)-5,6,7,8-tetrahydronaphthalen-1-yl)oxy)benzonitrile] | 5.44
16 | N#Cc1c(I)ccc(Oc2cc(F)cc(Cl)c2)c1Br [Compound 96, 2-Bromo-3-(3-chloro-5-fluorophenoxy)-6-iodobenzonitrile] | 5.51
17 | Fc1cc(Cl)cc(Oc2ccc(C(F)(F)F)c(Cl)c2Br)c1 [Compound 97, 2-Bromo-3-chloro-1-(3-chloro-5-fluorophenoxy)-4-(trifluoromethyl)benzene] | 5.66
18 | N#Cc1c(S(=O)(=O)C(F)(F)F)ccc(Oc2cc(F)cc(Cl)c2)c1Br [Compound 98, 2-Bromo-3-(3-chloro-5-fluorophenoxy)-6-((trifluoromethyl)sulfonyl)benzonitrile] | 7.82
19 | N#Cc1cc(F)cc(Oc2ccc(S(=O)(=O)C(F)(F)F)c(C#N)c2Br)c1 [Compound 100, 2-Bromo-3-(3-cyano-5-fluorophenoxy)-6-((trifluoromethyl)sulfonyl)benzonitrile] | 7.03
20 | O=Cc1c(S(=O)(=O)C(F)(F)F)ccc(Oc2cc(F)cc(Cl)c2)c1Br [Compound 101, 2-Bromo-3-(3-chloro-5-fluorophenoxy)-6-((trifluoromethyl)sulfonyl)benzaldehyde] | 7.59
21 | O=S(=O)(c1ccc(Oc2cc(F)cc(Cl)c2)c(Br)c1CO)C(F)(F)F [Compound 102, (2-Bromo-3-(3-chloro-5-fluorophenoxy)-6-((trifluoromethyl)sulfonyl)phenyl)methanol] | 6.92
22 | CC(O)c1c(S(=O)(=O)C(F)(F)F)ccc(Oc2cc(F)cc(Cl)c2)c1Br (stereo not drawn) [Compound 103, 1-(2-Bromo-3-(3-chloro-5-fluorophenoxy)-6-((trifluoromethyl)sulfonyl)phenyl)ethan-1-ol] | 6.52
23 | CC(=O)c1c(S(=O)(=O)C(F)(F)F)ccc(Oc2cc(F)cc(Cl)c2)c1Br [Compound 104, 1-(2-Bromo-3-(3-chloro-5-fluorophenoxy)-6-((trifluoromethyl)sulfonyl)phenyl)ethan-1-one] | 6.57
24 | N#Cc1c(Oc2cc(F)cc(Cl)c2)ccc(S(=O)(=O)C(F)(F)F)c1C(=O)O [Compound 105, 3-(3-Chloro-5-fluorophenoxy)-2-cyano-6-((trifluoromethyl)sulfonyl)benzoic acid] | 4.92
25 | CC(=NO)c1c(S(=O)(=O)C(F)(F)F)ccc(Oc2cc(F)cc(Cl)c2)c1Br [Compound 106, 1-(2-Bromo-3-(3-chloro-5-fluorophenoxy)-6-((trifluoromethyl)sulfonyl)phenyl)ethan-1-one oxime] | 6.00
26 | O=S(=O)(c1ccc(Oc2cc(F)cc(Cl)c2)c(Br)c1C=NO)C(F)(F)F [Compound 107, 2-Bromo-3-(3-chloro-5-fluorophenoxy)-6-((trifluoromethyl)sulfonyl)benzaldehyde oxime] | 6.80
27 | O=S(=O)(c1ccc(Oc2cc(F)cc(Cl)c2)c(Br)c1CNCCO)C(F)(F)F [Compound 108, 2-((2-Bromo-3-(3-chloro-5-fluorophenoxy)-6-((trifluoromethyl)sulfonyl)benzyl)amino)ethan-1-ol] | 5.24
28 | CNCc1c(S(=O)(=O)C(F)(F)F)ccc(Oc2cc(F)cc(Cl)c2)c1Br [Compound 109, 1-(2-Bromo-3-(3-chloro-5-fluorophenoxy)-6-((trifluoromethyl)sulfonyl)phenyl)-N-methylmethanamine] | 5.68
29 | O=S(=O)(c1ccc(Oc2cc(F)cc(Cl)c2)c(Br)c1CNCc1ccccc1)C(F)(F)F [Compound 110, N-Benzyl-1-(2-bromo-3-(3-chloro-5-fluorophenoxy)-6-((trifluoromethyl)sulfonyl)phenyl)methanamine] | 5.80
30 | N#Cc1c(S(=O)(=O)C(F)(F)F)ccc(Oc2cc(F)cc(Cl)c2)c1Cl [Compound 111, 2-Chloro-3-(3-chloro-5-fluorophenoxy)-6-((trifluoromethyl)sulfonyl)benzonitrile] | 7.82
